Assay results: ChEMBL document CHEMBL1821720, “Discovery and hit-to-lead optimization of novel allosteric glucokinase activators” (Bioorg Med Chem Lett, 2011)

Experiments:
[1] = biological target: T1, Hexokinase-4 (Homo sapiens) (UniProt P35557); assay: Activation of human recombinant glucokinase expressed in Escherichia coli coexpressing G6PDH at 10 uM using 20 mM glucose measured as ratio of enzyme activation in compound treated to Ro-28-1675 by G6PDH coupled continuous spectrophotometric assay
T1 sequence (whole entry): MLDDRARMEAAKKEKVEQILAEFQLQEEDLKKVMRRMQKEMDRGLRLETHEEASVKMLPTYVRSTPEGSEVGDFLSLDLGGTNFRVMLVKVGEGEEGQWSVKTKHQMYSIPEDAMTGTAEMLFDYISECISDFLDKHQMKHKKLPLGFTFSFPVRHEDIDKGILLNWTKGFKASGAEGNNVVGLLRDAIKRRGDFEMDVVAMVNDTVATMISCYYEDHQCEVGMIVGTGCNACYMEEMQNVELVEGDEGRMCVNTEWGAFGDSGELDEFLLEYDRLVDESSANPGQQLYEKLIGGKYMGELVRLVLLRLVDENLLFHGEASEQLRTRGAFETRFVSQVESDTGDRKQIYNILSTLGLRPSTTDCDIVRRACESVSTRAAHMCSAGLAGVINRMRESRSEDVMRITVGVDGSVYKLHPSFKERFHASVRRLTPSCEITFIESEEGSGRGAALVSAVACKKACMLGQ

[2] = biological target: T1, Hexokinase-4 (Homo sapiens); assay: Activation of human recombinant glucokinase expressed in Escherichia coli coexpressing G6PDH at 10 uM using 5 mM glucose by G6PDH coupled continuous spectrophotometric assay relative to Ro-28-1675
[3] = biological target: T1, Hexokinase-4 (Homo sapiens); assay: Activation of human recombinant glucokinase expressed in Escherichia coli coexpressing G6PDH at 10 uM using 5 mM glucose measured as ratio of enzyme activation in treated to untreated control by G6PDH coupled continuous spectrophotometric assay
[4] = biological target: T1, Hexokinase-4 (Homo sapiens); assay: Activation of human recombinant glucokinase expressed in Escherichia coli coexpressing G6PDH at 10 uM using 5 mM glucose measured as ratio of enzyme activation in compound treated to Ro-28-1675 by G6PDH coupled continuous spectrophotometric assay
[5] = biological target: T1, Hexokinase-4 (Homo sapiens); assay: Activation of human recombinant glucokinase expressed in Escherichia coli coexpressing G6PDH at 10 uM using 20 mM glucose measured as ratio of enzyme activation in treated to untreated control by G6PDH coupled continuous spectrophotometric assay
[6] = biological target: T1, Hexokinase-4 (Homo sapiens); assay: Activation of human recombinant glucokinase expressed in Escherichia coli coexpressing G6PDH at 10 uM using 20 mM glucose by G6PDH coupled continuous spectrophotometric assay relative to Ro-28-1675

Ratio [1] | Activity [2] [%] | Ratio [3] | Ratio [4] | Ratio [5] | Activity [6] [%] | SMILES
0.736 | 69 | 3.7 | 0.69 | 1.92 | 69 | CCc1sc(-c2ccccc2C(N)=O)cc1C(=O)Nc1nc2c(s1)CCC2
0.231 | 20 | 2.22 | 0.312 | 1.37 | 20 | Cc1cc(C(=O)Nc2nc3c(s2)CCC3)c(C)s1
0.247 | 20 | 1.88 | 0.219 | 1.42 | 20 | Cc1cc(C(=O)Nc2nc3c(s2)CCC3)c(C)o1
0.713 | 69 | 3.34 | 0.714 | 1.8 | – | Cc1sc(-c2ccccc2C(N)=O)cc1C(=O)Nc1nc2c(s1)CCC2
0.246 | – | 1.92 | 0.212 | 1.41 | – | COCc1cc(C(=O)Nc2nc3c(s2)CCC3)c(C)o1
0.627 | 66 | 3.52 | 0.66 | 1.71 | 63 | CC(=O)c1ccccc1-c1cc(C(=O)Nc2nc3c(s2)CCC3)c(C)s1
-0.015 | – | 1.06 | 0.012 | 0.97 | – | O=C(Nc1nc2c(s1)CCCC2)c1cccnc1
0.053 | – | 1.09 | 0.021 | 1.08 | – | Cc1oc(-c2cccnc2)cc1C(=O)Nc1nc2c(s1)CCC2
0.028 | – | 1.53 | 0.127 | 1.05 | – | Cc1cc(C(=O)Nc2nc3c(s2)CCCCC3)c(C)o1
0.05 | – | 1.3 | 0.069 | 1.08 | – | Cc1oc(CO)cc1C(=O)Nc1nc2c(s1)CCC2
-0.033 | – | 1.01 | 0.002 | 0.93 | – | O=C(Nc1nc2c(s1)CCCC2)c1ccncc1
0.384 | – | 2.43 | 0.329 | 1.63 | – | CC(=O)c1ccccc1-c1cc(C(=O)Nc2nc3c(s2)CCC3)c(C)o1
0.267 | – | 1.89 | 0.244 | 1.46 | – | Cc1oc(-c2ccccc2[N+](=O)[O-])cc1C(=O)Nc1nc2c(s1)CCC2
0.296 | – | 2.02 | 0.274 | 1.45 | – | CC(=O)c1ccccc1-c1cc(C(=O)Nc2nc3c(s2)CCC3)cs1
0.027 | – | 1.12 | 0.032 | 1.04 | – | CNC(=O)CCc1cc(C(=O)Nc2nc3c(s2)CCC3)c(C)o1
